Laboratory results taken from ChEMBL document CHEMBL1201862, “PubChem BioAssay data set” (2004).
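96-well plates; 48 h exposure; 5 concentrations. Endpoints by linear interpolation between flanking doses. Not reached: highest tested concentration assigned. Here, GI50 denotes the concentration required for 50% inhibition of growth.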 The source made the active and inactive calls. Rule as the data show it: active = GI50 up to about 1.1 µM and inactive = higher.

Tests used:
Assay in all cases: inhibition of tumour cell growth, NCI panel, 48 h
[1] = test system: NCI-H23
[2] = test system: LOX IMVI
[3] = test system: 786-0
[4] = test system: DU-145
[5] = test system: T47D
[6] = test system: SK-MEL-5
[7] = test system: CCRF-CEM
[8] = test system: EKVX
[9] = test system: M14
[10] = test system: OVCAR-5
[11] = test system: PC-3
[12] = test system: SK-MEL-28
[13] = test system: NCI/ADR-RES
[14] = test system: BT-549
[15] = test system: HOP-92
[16] = test system: SK-OV-3
[17] = test system: SF-268
[18] = test system: NCI-H522
[19] = test system: HCT-116
[20] = test system: SNB-19

Measured: GI50

CCOC(=O)CCCOc1cc(-c2ccccc2F)nc2cc3c(cc12)OCO3
inactive: [1] 46.6 µM | [2] > 100 µM | [3] > 100 µM | [4] > 100 µM | [5] 25.5 µM | [6] 57.7 µM | [7] 30.8 µM | [8] 40.6 µM | [9] 53 µM | [10] > 100 µM | [11] 29.6 µM | [12] 73.5 µM | [13] 46.8 µM | [14] 19.9 µM | [15] > 100 µM | [16] > 100 µM

O=C(O)C(CCc1ccccn1)c1ccccc1 (configuration not stated)
inactive: [1] > 100 µM | [2] > 100 µM | [17] > 100 µM | [3] > 100 µM | [4] > 100 µM | [5] > 100 µM | [6] > 100 µM | [8] > 100 µM | [9] > 100 µM | [18] > 100 µM | [10] > 100 µM | [19] > 100 µM | [11] > 100 µM | [20] > 100 µM | [12] > 100 µM | [13] > 100 µM | [14] > 100 µM | [15] > 50.4 µM | [16] > 100 µM

Oc1c(Br)c(-c2ccccc2)nc2ccccc12
inactive: [1] 22.1 µM | [2] 64 µM | [17] > 10 µM | [4] > 69.5 µM | [5] 8.3 µM | [6] 8.15 µM | [7] 44 µM | [8] 7.85 µM | [9] 47 µM | [18] > 10 µM | [10] > 10 µM | [19] 53.3 µM | [11] 9.38 µM | [20] > 10 µM | [12] 89.1 µM | [13] 35.1 µM | [14] 58.1 µM | [15] 8 µM | [16] > 100 µM

CC1=C(C(=O)N[C@@H](Cc2ccccc2)C(=O)O)N2C(=O)[C@@H](NC(=O)[C@@H](N)CC(C)C)[C@H]2SC1
inactive: [2] > 100 µM | [17] > 100 µM | [3] > 100 µM | [4] > 100 µM | [5] > 100 µM | [6] > 100 µM | [7] > 100 µM | [8] > 100 µM | [9] > 100 µM | [18] > 100 µM | [10] > 100 µM | [11] > 100 µM | [20] > 100 µM | [12] > 100 µM | [13] > 100 µM | [14] > 100 µM | [15] > 100 µM

CC(C)=CCC[C@@H](C)C1=C(O)C(=O)C(C)=C(Nc2ccccc2F)C1=O
inactive: [1] 12.7 µM | [2] 16.4 µM | [17] 9.77 µM | [3] 21.3 µM | [4] 23.9 µM | [5] 14.6 µM | [6] 12.5 µM | [7] 2.39 µM | [8] 49.2 µM | [9] 16.7 µM | [10] 60.4 µM | [19] 13.3 µM | [11] 12.3 µM | [20] 15.2 µM | [12] 38.6 µM | [13] 3.49 µM | [14] 17.5 µM | [15] 21.1 µM | [16] 25.7 µM

Cc1ccc(C(=O)CC(Cl)=C(Cl)Cl)cc1
inactive: [1] > 100 µM | [2] 31.7 µM | [17] > 100 µM | [3] 63.1 µM | [4] > 100 µM | [5] 50.6 µM | [6] > 100 µM | [7] 25.8 µM | [9] > 100 µM | [18] 49.3 µM | [10] > 100 µM | [19] 61.9 µM | [11] > 100 µM | [20] > 100 µM | [12] > 100 µM | [13] > 100 µM | [14] > 100 µM | [15] > 100 µM | [16] > 100 µM

CCOC(=O)CC1CCN(C(=O)c2ccccc2)C2Cc3c([nH]c4ccccc34)C12C[N+](=O)[O-] (configuration not stated)
inactive: [1] 73.6 µM | [2] > 100 µM | [17] > 100 µM | [4] > 100 µM | [5] 54.3 µM | [6] 57.8 µM | [7] 12.6 µM | [8] > 100 µM | [9] 63.2 µM | [18] > 100 µM | [10] > 100 µM | [11] 43.5 µM | [12] > 100 µM | [13] 49.4 µM | [14] > 100 µM | [15] 40.6 µM | [16] > 100 µM

COC(=O)c1n[nH]c(C)c1/N=N/N(C)CCC#N
inactive: [1] 16.3 µM | [2] 8.18 µM | [17] 15.1 µM | [3] 17.7 µM | [4] 15.1 µM | [5] 14 µM | [6] 26.9 µM | [7] 7.67 µM | [8] 13.7 µM | [9] 30.8 µM | [18] 10.5 µM | [19] 16.4 µM | [11] 20 µM | [20] 28.7 µM | [12] 29.8 µM | [13] 16.2 µM | [14] 10.9 µM | [15] 14.7 µM | [16] 19.7 µM

CC12CCC(Br)C(C)(C)C1CC=C1C(=O)OCC1O2 (configuration not stated)
inactive: [1] 11.8 µM | [2] 9.57 µM | [17] 14.1 µM | [3] 19.4 µM | [4] 12 µM | [5] 15.4 µM | [6] 15.1 µM | [8] 16.5 µM | [9] 20.5 µM | [18] 3.52 µM | [10] 18.7 µM | [19] 12.9 µM | [11] 9.89 µM | [20] 18.2 µM | [12] 14.8 µM | [13] 20.4 µM | [14] 14.9 µM | [15] 11.9 µM | [16] 9.06 µM

O=C1OCC/C1=C/c1ccc(/N=N/c2c(O)ccc3ccccc23)cc1
inactive: [1] 19.5 µM | [17] 19.8 µM | [3] 19.1 µM | [4] 17.7 µM | [5] 39.4 µM | [6] 21.9 µM | [7] 22.9 µM | [8] 19.1 µM | [9] 27.5 µM | [18] 22.9 µM | [10] 22.3 µM | [19] 17.6 µM | [11] 19.9 µM | [20] 39.4 µM | [12] 18.9 µM | [13] 20.1 µM | [14] 23.2 µM | [15] 27.4 µM | [16] 28.3 µM

NC(CCCCP(=O)(O)O)C(=O)O (configuration not stated)
inactive: [1] > 100 µM | [2] > 100 µM | [17] > 100 µM | [4] > 100 µM | [5] > 100 µM | [6] > 100 µM | [7] > 100 µM | [8] > 100 µM | [9] > 100 µM | [18] 26.9 µM | [10] > 100 µM | [19] > 100 µM | [11] > 100 µM | [20] > 100 µM | [12] > 100 µM | [13] > 100 µM | [14] > 100 µM | [15] > 100 µM | [16] > 100 µM
